Assay results published in PubChem BioAssay (NCI).
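Values below derive from 48-hour exposures of cells grown in 96-well plates, with endpoints linearly interpolated between the two concentrations bracketing the appropriate inhibition level. TGI marks complete inhibition of growth.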

Assays:
Assay in all cases: NCI anticancer screen, dose series, 48 h
[1] = test system: SNB-78 CNS
[2] = test system: UO-31 renal
[3] = test system: SK-OV-3 ovarian
[4] = test system: SR leukemia
[5] = test system: ACHN renal
[6] = test system: COLO 205 colon
[7] = test system: OVCAR-3 ovarian
[8] = test system: OVCAR-8 ovarian
[9] = test system: KM12 colon
[10] = test system: DMS 273 small cell lung
[11] = test system: RPMI-8226 leukemia
[12] = test system: MALME-3M melanoma
[13] = test system: SF-295 CNS
[14] = test system: LOX IMVI melanoma
[15] = test system: CAKI-1 renal
[16] = test system: IGROV1 ovarian
[17] = test system: SK-MEL-5 melanoma
[18] = test system: DMS 114 small cell lung
[19] = test system: SN12C renal
[20] = test system: A498 renal
[21] = test system: MOLT-4 leukemia
[22] = test system: SF-268 CNS
[23] = test system: TK-10 renal
[24] = test system: SW-620 colon
[25] = test system: RXF-631 renal
[26] = test system: HOP-92 NSCLC
[27] = test system: K-562 leukemia
[28] = test system: OVCAR-5 ovarian
[29] = test system: HT29 colon
[30] = test system: SNB-19 CNS
[31] = test system: XF 498 CNS
[32] = test system: SK-MEL-2 melanoma
[33] = test system: NCI-H522 lung
[34] = test system: NCI-H460 lung
[35] = test system: HOP-18 NSCLC
[36] = test system: 786-0 renal
[37] = test system: HOP-62 NSCLC
[38] = test system: HCT-15 colon
[39] = test system: KM20L2 colon
[40] = test system: SNB-75 CNS
[41] = test system: CCRF-CEM leukemia
[42] = test system: SF-539 CNS
[43] = test system: M14 melanoma
[44] = test system: RXF 393 renal
[45] = test system: SK-MEL-28 melanoma
[46] = test system: A549 NSCLC
[47] = test system: LXFL 529 NSCLC
[48] = test system: UACC-257 melanoma
[49] = test system: HCT-116 colon
[50] = test system: HCC-2998 colon
[51] = test system: OVCAR-4 ovarian
[52] = test system: DLD-1 colon
[53] = test system: NCI-H23 lung
[54] = test system: UACC-62 melanoma
[55] = test system: U251 CNS
[56] = test system: NCI-H226 lung
[57] = test system: HL-60(TB) leukemia
[58] = test system: EKVX NSCLC
[59] = test system: M19-MEL melanoma

`CCC(CO)COC(=O)/C=C/C(=O)OCC(CC)CO` (stereo not given) was tested, and the TGI [1] was > 100 µM, the TGI [2] was > 100 µM and the TGI [3] was > 100 µM. The TGI [4] was > 95.6 µM, the TGI [5] was > 100 µM and the TGI [6] was > 100 µM. For the same compound, the TGI [7] was > 100 µM, the TGI [8] was > 100 µM and the TGI [9] was > 100 µM. For the same compound, the TGI [10] was > 100 µM, the TGI [11] was > 100 µM and the TGI [12] was > 100 µM. For the same compound, the TGI [13] was > 100 µM, the TGI [14] was > 100 µM and the TGI [15] was > 100 µM. The TGI [16] was > 100 µM, the TGI [17] was > 100 µM and the TGI [18] was > 100 µM. For the same compound, the TGI [19] was > 100 µM, the TGI [20] was > 100 µM and the TGI [21] was > 100 µM. The TGI [22] was > 100 µM, the TGI [23] was > 100 µM and the TGI [24] was > 100 µM. The TGI [25] was > 100 µM, the TGI [26] was > 100 µM and the TGI [27] was > 100 µM. For the same compound, the TGI [28] was > 100 µM, the TGI [29] was > 100 µM and the TGI [30] was > 100 µM. The TGI [31] was > 100 µM, the TGI [32] was > 100 µM and the TGI [33] was > 100 µM. For the same compound, the TGI [34] was > 100 µM, the TGI [35] was > 100 µM and the TGI [36] was > 100 µM. The TGI [37] was > 100 µM, the TGI [38] was > 100 µM and the TGI [39] was > 100 µM. For the same compound, the TGI [40] was > 100 µM, the TGI [41] was > 82.6 µM and the TGI [42] was > 100 µM. For the same compound, the TGI [43] was > 100 µM, the TGI [44] was > 100 µM and the TGI [45] was > 100 µM. The TGI [46] was > 100 µM, the TGI [47] was > 100 µM and the TGI [48] was > 100 µM. For the same compound, the TGI [49] was > 100 µM, the TGI [50] was > 100 µM and the TGI [51] was > 100 µM. For the same compound, the TGI [52] was > 100 µM, the TGI [53] was > 100 µM and the TGI [54] was > 100 µM. The TGI [55] was > 100 µM, the TGI [56] was > 100 µM and the TGI [57] was 45.5 µM. For the same compound, the TGI [58] was > 100 µM and the TGI [59] was > 100 µM.

For `Cc1cc2c(=O)cc(-c3ccc(Cl)c(Cl)c3)oc2c(C(=O)O)c1C`, the TGI [1] was > 100 µM, the TGI [2] was > 100 µM and the TGI [3] was > 100 µM. For the same compound, the TGI [5] was > 100 µM, the TGI [6] was > 100 µM and the TGI [7] was > 100 µM. The TGI [8] was > 100 µM, the TGI [9] was > 100 µM and the TGI [11] was > 100 µM. The TGI [12] was > 100 µM, the TGI [13] was > 100 µM and the TGI [14] was > 100 µM. For the same compound, the TGI [15] was > 100 µM, the TGI [16] was > 100 µM and the TGI [17] was > 100 µM. The TGI [18] was > 100 µM, the TGI [19] was > 100 µM and the TGI [21] was > 100 µM. For the same compound, the TGI [22] was > 100 µM, the TGI [23] was > 100 µM and the TGI [24] was > 100 µM. The TGI [27] was > 100 µM, the TGI [28] was > 100 µM and the TGI [29] was > 100 µM. For the same compound, the TGI [30] was > 100 µM, the TGI [31] was > 100 µM and the TGI [32] was > 100 µM. For the same compound, the TGI [33] was > 100 µM, the TGI [34] was > 100 µM and the TGI [35] was > 100 µM. For the same compound, the TGI [36] was > 100 µM, the TGI [38] was > 100 µM and the TGI [39] was > 100 µM. The TGI [40] was > 100 µM, the TGI [41] was > 100 µM and the TGI [42] was > 100 µM. The TGI [43] was > 100 µM, the TGI [44] was > 100 µM and the TGI [45] was > 100 µM. The TGI [46] was > 100 µM, the TGI [47] was > 100 µM and the TGI [48] was > 100 µM. For the same compound, the TGI [49] was > 100 µM, the TGI [51] was > 100 µM and the TGI [52] was > 100 µM. The TGI [53] was > 100 µM, the TGI [54] was > 100 µM and the TGI [55] was > 100 µM. The TGI [56] was > 100 µM, the TGI [58] was > 100 µM and the TGI [59] was > 100 µM.
